In patent publication US20140315876A1, “BETA-LACTAMASE INHIBITORS” (priority 2013, published 2014):
Where a name gives a salt, the structure may show the parent alone.

How the values were obtained:
[1] = test system: bacterial strains that express the class D cephalosporinase OXA-15; assay: Synergy MIC / standard BLI potentiation MIC assay, strains expressing OXA-15; type: cell-based, E. coli; conditions: in the presence of a β-lactam; comparator Avibactam (comparator compound CCC)
Summary of the method: (§1)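 Broth microdilution in CAMHB per CLSI, ~10^5 CFU/mL, 18-20 h at 37° C; MIC is lowest concentration with no visible turbidity. Potentiation: β-lactam 128-0.13 μg/mL with BLI fixed at 4 μg/mL. Synergy: BLI serially diluted with β-lactam fixed. Engineered E. coli kept on 25 μg/mL tetracycline.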

[2] = test system: bacterial strains that express KPC β-lactamases; assay: Synergy MIC / standard BLI potentiation MIC assay, strains expressing KPC β-lactamases; type: cell-based; conditions: more active for at least one KPC strain and/or better spectrum of activity than Avibactam; in the presence of a β-lactam
Summary of the method: as §1

| SMILES | activity against bacterial strains that express the class D cephalosporinase OXA-15, compared with Avibactam [1] | activity and/or spectrum of activity against bacterial strains that express KPC β-lactamases, compared with Avibactam [2] |
| --- | --- | --- |
| O=C1N2C[C@@H](CC[C@H]2c2nnc(CCCNC3CCNCC3)o2)N1OS(=O)(=O)O [Compound 771, (2S,5R)-7-oxo-2-(5-(3-(piperidin-4-ylamino)propyl)-1,3,4-oxadiazol-2-yl)-1,6-diazabicyclo[3.2.1]octan-6-yl hydrogen sulfate] | more active than Avibactam | more active than Avibactam |
| O=C1N2C[C@@H](CC[C@H]2c2nnc(CCCCNC3CCNCC3)o2)N1OS(=O)(=O)O [Compound 772, (2S,5R)-7-oxo-2-(5-(4-(piperidin-4-ylamino)butyl)-1,3,4-oxadiazol-2-yl)-1,6-diazabicyclo[3.2.1]octan-6-yl hydrogen sulfate] | more active than Avibactam | more active than Avibactam |
| NC1CCN(Cc2nnc([C@@H]3CC[C@@H]4CN3C(=O)N4OS(=O)(=O)O)o2)CC1 [Compound 774, (2S,5R)-2-(5-((4-aminopiperidin-1-yl)methyl)-1,3,4-oxadiazol-2-yl)-7-oxo-1,6-diazabicyclo[3.2.1]octan-6-yl hydrogen sulfate] | more active than Avibactam | more active than Avibactam |
| O=C1N2C[C@@H](CC[C@H]2c2nnc(CCN3CCNCC3)o2)N1OS(=O)(=O)O [Compound 776, (2S,5R)-7-oxo-2-(5-(2-(piperazin-1-yl)ethyl)-1,3,4-oxadiazol-2-yl)-1,6-diazabicyclo[3.2.1]octan-6-yl hydrogen sulfate] | more active than Avibactam | more active than Avibactam |
| O=C1N2C[C@@H](CC[C@H]2c2nnc(CN3CCNCC3)o2)N1OS(=O)(=O)O [Compound 777, (2S,5R)-7-oxo-2-(5-(piperazin-1-ylmethyl)-1,3,4-oxadiazol-2-yl)-1,6-diazabicyclo[3.2.1]octan-6-yl hydrogen sulfate] | more active than Avibactam | more active than Avibactam |
| O=C1N2C[C@@H](CC[C@H]2c2nnc([C@H]3CNCCN3)o2)N1OS(=O)(=O)O [Compound 779, (2S,5R)-7-oxo-2-(5-((R)-piperazin-2-yl)-1,3,4-oxadiazol-2-yl)-1,6-diazabicyclo[3.2.1]octan-6-yl hydrogen sulfate] | more active than Avibactam | more active than Avibactam |
| C[n+]1ccc(-c2nnc([C@@H]3CC[C@@H]4CN3C(=O)N4OS(=O)(=O)[O-])o2)cc1 [Compound 782, (2S,5R)-2-(5-(1-methylpyridin-1-ium-4-yl)-1,3,4-oxadiazol-2-yl)-7-oxo-1,6-diazabicyclo[3.2.1]octan-6-yl sulfate] | more active than Avibactam | more active than Avibactam |
| N[C@H]1C[C@H](c2nnc([C@@H]3CC[C@@H]4CN3C(=O)N4OS(=O)(=O)O)s2)C1 [Compound 783, (2S,5R)-2-(5-((1r,3S)-3-aminocyclobutyl)-1,3,4-thiadiazol-2-yl)-7-oxo-1,6-diazabicyclo[3.2.1]octan-6-yl hydrogen sulfate] | more active than Avibactam | more active than Avibactam |
| N=C(N)N[C@H]1C[C@@H](c2nnc([C@@H]3CC[C@@H]4CN3C(=O)N4OS(=O)(=O)O)s2)C1 [Compound 784, (2S,5R)-2-(5-((1s,3R)-3-guanidinocyclobutyl)-1,3,4-thiadiazol-2-yl)-7-oxo-1,6-diazabicyclo[3.2.1]octan-6-yl hydrogen sulfate] | more active than Avibactam | more active than Avibactam |
| N=C(N)NCCc1nnc([C@@H]2CC[C@@H]3CN2C(=O)N3OS(=O)(=O)O)s1 [Compound 794, (2S,5R)-2-(5-(2-guanidinoethyl)-1,3,4-thiadiazol-2-yl)-7-oxo-1,6-diazabicyclo[3.2.1]octan-6-yl hydrogen sulfate] | more active than Avibactam | more active than Avibactam |
| N[C@H]1C[C@@H](c2nnc([C@@H]3CC[C@@H]4CN3C(=O)N4OS(=O)(=O)O)s2)C1 [Compound 795, (2S,5R)-2-(5-((1s,3R)-3-aminocyclobutyl)-1,3,4-thiadiazol-2-yl)-7-oxo-1,6-diazabicyclo[3.2.1]octan-6-yl hydrogen sulfate] | more active than Avibactam | more active than Avibactam |
